According to EP0103895A2, “Novel hydroxylamine derivatives, production and use thereof” (MEIJI SEIKA KABUSHIKI KAISHA, priority 1982, dated 1984):
Read-outs that look alike come from different tables or passages of the source.

How the values were obtained:
[1] = system: fowl roundworm (As. galli); assay: Anthelmintic test in chickens artificially infected with fowl roundworm, compound added to feed, E.P.G. and worm count up to 21st day (Test Examples A2, B2, C2, D2); type: in vivo, Ascaridia galli; conditions: Ascaridia galli, 504 h, read-out: Anthelmintic effect; for inhibition in vivo at 10 ppm: 10 ppm added to feed
Method: Chickens artificially infected with fowl roundworm (As. galli) were employed in groups each of two chickens.
Fecal matter testing was conducted before initiation of the test and on the 7th, 14th and 21st day after initiation of the test. Reduction in worm egg number was examined by calculating E.P.G. (worm eggs per 1 g of fecal matter), and the number of discharged worm bodies and the number of worm bodies remaining in the enteron when the chicken was killed on 21st day were counted to determine the anthelmintic percentage, from which the anthelmintic effect was judged.

[2] = system: Liver fluke; Fasciola hepatica (F. hepatica); assay: Test of anthelmintic effect against rat infected experimentally with liver fluke (Test Examples A11, B11, C11, D11); type: in vivo; set-up: key to Presence or absence of fluke egg in fecal matter On 21st day after the last administration: +: indicates detection of fluke egg; -: indicates no detection; conditions: for Condition of fluke body: autopsy, liver, "Denatured" = fluke body is alive but a part of fluke body has changed
Description: Twenty-eight (28) rats were employed in fourteen groups each of two rats, each rat being infected with 5 metacercariae of Liver fluke; Fasciola he^patica (F.. hepatica) and confirmed to have worm eggs on the 75th day after infection according to fecal matter testing.
Judgement of the effect was made by the presence or absence of the worm gees in the fecal matter on the 21st day after the last administration and by examination according to autopsis as to whether the worm bodies were dead or alive in the liver.
The same as that in Test Example All, but eight (8) rats were employed by grouping them into groups each of two rats, each rat being infected with 5 metacercariae of liver fluke and confirmed to have fluke eggs on the 75th day after infection according to fecal matter testing.
The compounds provided for the tests were Compound Nos. Bl, B8 and B19.
The same as that in Test Example All, but six (6) rats were employed by grouping them into groups each of two rats, each rat being infected with 5 metacercariae of Fasciola hepatica and confirmed to have worm eggs on the 75th day after infection according to fecal matter testing.
The compounds provided for the tests were Compound Nos. C2 and C6.
The same as that in Test Example All, but the compounds provided for tests were Compound Nos. D14, D15 and D16.

[3] = system: fowl roundworm (Ascaridia galli); assay: Anthelmintic test in chickens artificially infected with fowl roundworm, single oral dose in gelatin capsule, worm bodies counted within 48 hours (Test Examples A1, B1, C1, D1); type: in vivo; conditions: Ascaridia galli, po, 48 h, read-out: Anthelmintic effect after 48 hours
Method: Chickens infected artificially with fowl roundworm (Ascaridia galli) were employed in groups each consisting of three chickens. Fecal matter testing was conducted before administration of medicine to confirm infection with the worm. The quantity of the compound provided for testing was 10 mg and 20 mg per Kg of body weight, which was orally administered each in a gelatin capsule to the chicken. The number of worm bodies discharged within 48 hours after administration of medicine was counted, the chicken was killed after 48 hours and the number of worm bodies remaining in the enteron was counted to determine the anthelmintic percentage, wherefrom the antihelmintic effect was judged.
The same as that in Test Example Al.
The same as that in Test Example Al except that the compound provided for testing was in quantities of 30 mg and 50 mg per Kg of body weight, which were orally administered to the chickens in gelatin capsules.
The same as that in Test Example Al, except that the compounds provided for testing were used in quantities of 15 mg and 30 mg per Kg of body weight, which were orally administered each in a gelatin capsule to the chicken.

[4] = system: fowl roundworm (As. galli); assay: Anthelmintic test in chickens infected with fowl roundworm, single oral dose of 40 mg per Kg, worm bodies counted within 24 hours (Test Example E1); type: in vivo, Ascaridia galli; conditions: 40 mg per Kg oral in gelatin capsule; for inhibition in vivo at 40 mg/kg: Ascaridia galli, 24 h, chicken No.1, read-out: Anthelmintic effect after one day
Method: Chickens infected with fowl roundworm (As. galli) were employed in groups each consisting of five chickens. The compound provided for testing was orally administered in a quantity of 40 mg per Kg of body weight to each chicken in a gelatin capsule. The number of worm bodies discharged within 24 hours after administration of the medicine was counted. Then the chicken was killed, and the number of worm bodies remaining in the enteron was counted to determine the anthelmintic percentage, wherefrom the anthelmintic effect was judged.

[5] = system: fowl roundworm (As. galli); assay: Anthelmintic test in chickens infected with fowl roundworm, compound added to feed at 250 ppm and 1,000 ppm, E.P.G. and worm count on 5th day (Test Example E2); type: in vivo, Ascaridia galli; conditions: for E.P.G. after 5 days: worm egg number in 1 g of fecal matter; for anthelmintic effect / inhibition in vivo at 250 ppm / inhibition in vivo at 1000 ppm: 5th day; for inhibition in vivo at 250 ppm / inhibition in vivo at 1000 ppm: Ascaridia galli, feed or water, 120 h, read-out: Anthelmintic effect
Method: Chickens infected with fowl roundworm (As. galli) were employed in groups each of two chickens.
The compound provided for the test was dissolved in a small amount of ethyl alcohol and adsorbed on defatted rice bran and added to chicken feed at levels of 250 ppm and 1,000 ppm. As control, a feed containing no such compound was employed.
Fecal matter testing was conducted before initiation of the test and on the 5th day after initiation of the test. The reduction in worm egg count was examined by calculating the E.P.G. (worm egg number in 1 g of fecal matter). The number of discharged worm bodies and the number of worm bodies remaining in the enteron when the chicken was killed on 5th day were counted to determined the anthelmintic percentage, from which the anthelmintic effect was judged.

[6] = po, chickens, worm count on 21st day, one value per chicken
[7] = po, chickens, 50 ppm added to feed, worm count on 21st day, one value per chicken
[8] = rats, 50 mg/Kg x 5 orally, one value per rat
[9] = 1000 ppm in feed, chicken No. 1
[10] = 1000 ppm in feed, chicken No. 2

Compound: C#CCN(OCC=C)C(=O)c1ccccc1 [Compound A11, N-propargyl-N-benzoyl-O-allylhydroxylamine]
- inhibition in vivo at 10 ppm [1, 6]: 80 to 90%
- inhibition in vivo at 50 ppm [1, 7]: 100%
- Condition of fluke body [2, 8]: dead
- Presence or absence of fluke egg in fecal matter On 21st day after the last administration [2, 8]: -

Compound: C#CCN(C=O)OCC=C [Compound A13, N-propargyl-N-formyl-0-allylhydroxylamine]
- inhibition in vivo at 10 mg/kg ([3]; chickens, 10 mg/Kg orally in gelatin capsule, one value per chicken (No.1-3)): 100%
- inhibition in vivo at 20 mg/kg ([3]; chickens, 20 mg/Kg orally in gelatin capsule, one value per chicken (No.1-3)): 100%
- inhibition in vivo at 10 ppm [1, 6]: 80 to 90%
- inhibition in vivo at 50 ppm [1, 7]: 100%
- Condition of fluke body ([2]; rats, 50 mg/Kg x 5 orally, one value per rat, 50 mg/kg): denatured and dead
- Presence or absence of fluke egg in fecal matter On 21st day after the last administration [2, 8]: -

Compound: C#CCON(CC#C)C(=O)c1ccccc1 [Compound E7, N,O-dipropargyl-N-benzoylhydroxylamine]
- inhibition in vivo at 40 mg/kg [4]: 100%
- Anthelmintic effect after one day ([4]; chicken No.2): +++ (100%)
- Anthelmintic effect after one day ([4]; chicken No.3): +++ (100%)
- Anthelmintic effect after one day ([4]; chicken No.4): +++ (100%)
- Anthelmintic effect after one day ([4]; chicken No.5): +++ (100%)
- E.P.G. after 5 days ([5]; 250 ppm in feed, chicken No. 1): 0
- anthelmintic effect ([5]; 250 ppm in feed, chicken No. 2): +++ (100%)
- E.P.G. after 5 days ([5]; 250 ppm in feed, chicken No. 2): 0
- E.P.G. after 5 days [5, 9]: 0
- anthelmintic effect [5, 10]: +++ (100%)
- E.P.G. after 5 days [5, 10]: 0
- inhibition in vivo at 250 ppm ([5]; 250 ppm in feed, chicken No. 1): 100%
- inhibition in vivo at 1000 ppm [5, 9]: 100%

Compound: C#CCN(OCC)C(C)=O [Compound A2, N-propargyl-N-acetyl-O-ethylhydroxylamine]
- inhibition in vivo at 10 ppm [1, 6]: 80 to 90%
- inhibition in vivo at 50 ppm [1, 7]: 100%
- Condition of fluke body [2, 8]: dead
- Presence or absence of fluke egg in fecal matter On 21st day after the last administration [2, 8]: -

Compound: C#CCON(C=O)CC#C [Compound E9, N,O-dipro- pargyl-N-formylhydroxylamine]
- inhibition in vivo at 40 mg/kg [4]: 100%
- Anthelmintic effect after one day ([4]; chicken No.2): +++ (100%)
- Anthelmintic effect after one day ([4]; chicken No.3): +++ (100%)
- Anthelmintic effect after one day ([4]; chicken No.4): +++ (100%)
- Anthelmintic effect after one day ([4]; chicken No.5): +++ (100%)
- E.P.G. after 5 days ([5]; 250 ppm in feed, chicken No. 1): 0
- anthelmintic effect ([5]; 250 ppm in feed, chicken No. 2): +++ (100%)
- E.P.G. after 5 days ([5]; 250 ppm in feed, chicken No. 2): 0
- E.P.G. after 5 days [5, 9]: 0
- anthelmintic effect [5, 10]: +++ (100%)
- E.P.G. after 5 days [5, 10]: 0
- inhibition in vivo at 250 ppm ([5]; 250 ppm in feed, chicken No. 1): 100%
- inhibition in vivo at 1000 ppm [5, 9]: 100%

Compound: C#CCNOCC#C [Compound D15]
- inhibition in vivo at 15 mg/kg ([3]; chicken, 15 mg/Kg oral in gelatin capsule, chickens No.1-3): 100%
- inhibition in vivo at 30 mg/kg ([3]; chicken, 30 mg/Kg oral in gelatin capsule, chickens No.1-3): 100%
- inhibition in vivo at 25 ppm ([1]; feed or water, chicken, 25 ppm in feed): 80 to 90%
- inhibition in vivo at 50 ppm ([1]; feed or water, chicken, 50 ppm in feed): 100%
- Condition of fluke bodies ([2]; rat, 50 mg/Kg x 5): dead
- Presence or absence of fluke egg in fecal matter On 21st day after the last administration ([2]; rat, 50 mg/Kg x 5): -
- anthelmintic effect ([2]; rats, five administrations in a dose of 50 mg/Kg each): marked anthelmintic effect

Compound: C#CCN(OCC=C)C(=O)CCCC [Compound A7, N-propargyl-N-valeroyl-O-allylhydroxylamine]
- inhibition in vivo at 10 ppm [1, 6]: 80 to 90%
- inhibition in vivo at 50 ppm [1, 7]: 100%
- Condition of fluke body [2, 8]: dead
- Presence or absence of fluke egg in fecal matter On 21st day after the last administration [2, 8]: -
